Test system: healthy Chinese subjects
Assay: Phase I clinical trial, multiple oral administrations (Example 6)
Format: in vivo, human
Conditions: 15 mg BID, 30 mg BID, 60 mg BID and 75 mg BID, 36 healthy Chinese subjects
Method: A Phase I clinical trial enrolling a total of 36 healthy Chinese subjects was conducted, with multiple oral administrations of the compound of Example 2 at doses of 15 mg BID, 30 mg BID, 60 mg BID and 75 mg BID, and placebo, respectively.

`CCOc1cc([C@@H](CS(C)(=O)=O)N2C(=O)c3csc(NC(C)=O)c3C2=O)ccc1OC` [Example 2, (S)-N-[5-[1-(3-ethoxy-4-methoxyphenyl)-2-(methylsulfonyl)ethyl]-4,6-dioxo-5,6-dihydro-4H-thieno[3,4-c]pyrrol-1-yl]acetamide] was tested, and the safety and tolerability was “favorable safety and good tolerability”.

— patent EP4810499A1, “TREATMENT OF BEHÇET'S DISEASE” (Ganzhou Hemay Pharmaceutical, Co., Ltd, priority 2023, dated 2025)
